# According to PubChem BioAssay AID1259407 (Chemical Carcinogenesis Research Information System (CCRIS), 2018):
# Calls of active or inactive are those of the source. The rule behind the calls is not given here.
# Test system: CCRIS mutagenicity, Ames/micronucleus/aberration tests
# Assay: CCRIS mutagenicity studies
# [1] = Test System: AMES SALMONELLA TYPHIMURIUM, Strain/Indicator: TA98, Metabolic Activation: HAMSTER, LIVER, S-9, AROCLOR 1254 (10%), Method: PREINCUBATION
# [2] = Test System: AMES SALMONELLA TYPHIMURIUM, Strain/Indicator: TA98, Metabolic Activation: NONE, Method: PREINCUBATION
# [3] = Test System: AMES SALMONELLA TYPHIMURIUM, Strain/Indicator: TA98, Metabolic Activation: RAT, LIVER, S-9, AROCLOR 1254 (10%), Method: PREINCUBATION
# [4] = Test System: AMES SALMONELLA TYPHIMURIUM, Strain/Indicator: TA100, Metabolic Activation: HAMSTER, LIVER, S-9, AROCLOR 1254 (10%), Method: PREINCUBATION
# [5] = Test System: AMES SALMONELLA TYPHIMURIUM, Strain/Indicator: TA100, Metabolic Activation: NONE, Method: PREINCUBATION
# [6] = Test System: AMES SALMONELLA TYPHIMURIUM, Strain/Indicator: TA100, Metabolic Activation: RAT, LIVER, S-9, AROCLOR 1254 (10%), Method: PREINCUBATION
# [7] = Test System: AMES SALMONELLA TYPHIMURIUM, Strain/Indicator: TA1535, Metabolic Activation: HAMSTER, LIVER, S-9, AROCLOR 1254 (10%), Method: PREINCUBATION
# [8] = Test System: AMES SALMONELLA TYPHIMURIUM, Strain/Indicator: TA1535, Metabolic Activation: NONE, Method: PREINCUBATION
# [9] = Test System: AMES SALMONELLA TYPHIMURIUM, Strain/Indicator: TA1535, Metabolic Activation: RAT, LIVER, S-9, AROCLOR 1254 (10%), Method: PREINCUBATION
# [10] = Test System: AMES SALMONELLA TYPHIMURIUM, Strain/Indicator: TA1537, Metabolic Activation: NONE, Method: PREINCUBATION
# [11] = Test System: AMES SALMONELLA TYPHIMURIUM, Strain/Indicator: TA100, Metabolic Activation: RAT, LIVER, S-9, AROCLOR 1254, Method: STANDARD PLATE
# [12] = Test System: AMES SALMONELLA TYPHIMURIUM, Strain/Indicator: TA98, Metabolic Activation: RAT, LIVER, S-9, KANECHLOR 500, Method: PREINCUBATION
# [13] = Test System: AMES SALMONELLA TYPHIMURIUM, Strain/Indicator: TA100, Metabolic Activation: RAT, LIVER, S-9, KANECHLOR 500, Method: PREINCUBATION
structure (smiles),measurement,setting,value
OCCN1CN(CCO)CN(CCO)C1,mutagenic call,[1],inactive; negative
same,mutagenic call,[2],inactive; negative
same,mutagenic call,[3],inactive; negative
same,mutagenic call,[4],active; positive
same,mutagenic call,[5],inactive; negative
same,mutagenic call,[6],inactive; negative
same,mutagenic call,[7],inactive; negative
same,mutagenic call,[8],inactive; negative
same,mutagenic call,[9],inactive; negative
same,mutagenic call,"Test System: AMES SALMONELLA TYPHIMURIUM, Strain/Indicator: TA1537, Metabolic Activation: HAMSTER, LIVER, S-9, AROCLOR 1254 (10%), Method: PREINCUBATION",inactive; negative
same,mutagenic call,[10],inactive; negative
same,mutagenic call,"Test System: AMES SALMONELLA TYPHIMURIUM, Strain/Indicator: TA1537, Metabolic Activation: RAT, LIVER, S-9, AROCLOR 1254 (10%), Method: PREINCUBATION",inactive; negative
CC(COc1ccccc1)N(CCCl)Cc1ccccc1 (stereo not given),mutagenic call,"Test System: AMES SALMONELLA TYPHIMURIUM, Strain/Indicator: TA97, Metabolic Activation: HAMSTER, LIVER, S-9, AROCLOR 1254 (10%), Method: PREINCUBATION",active; positive
same,mutagenic call,"Test System: AMES SALMONELLA TYPHIMURIUM, Strain/Indicator: TA97, Metabolic Activation: NONE, Method: PREINCUBATION",active; positive
same,mutagenic call,"Test System: AMES SALMONELLA TYPHIMURIUM, Strain/Indicator: TA97, Metabolic Activation: RAT, LIVER, S-9, AROCLOR 1254 (10%), Method: PREINCUBATION",active; positive
same,mutagenic call,[1],active; positive
same,mutagenic call,[2],active; positive
same,mutagenic call,[3],active; positive
same,mutagenic call,[4],active; positive
same,mutagenic call,[5],active; positive
same,mutagenic call,[6],active; positive
same,mutagenic call,[7],active; positive
same,mutagenic call,[8],inactive; negative
same,mutagenic call,[9],active; positive
c1ccc(-c2ccccc2)cc1,mutagenic call,"Test System: AMES SALMONELLA TYPHIMURIUM, Strain/Indicator: TA97, Metabolic Activation: NONE, Method: STANDARD PLATE",inactive; negative
same,mutagenic call,"Test System: AMES SALMONELLA TYPHIMURIUM, Strain/Indicator: TA97, Metabolic Activation: RAT, LIVER, S-9, AROCLOR 1254, Method: STANDARD PLATE",inactive; negative
same,mutagenic call,[2],inactive; negative
same,mutagenic call,"Test System: AMES SALMONELLA TYPHIMURIUM, Strain/Indicator: TA98, Metabolic Activation: NONE, Method: STANDARD PLATE",inactive; negative
same,mutagenic call,"Test System: AMES SALMONELLA TYPHIMURIUM, Strain/Indicator: TA98, Metabolic Activation: RAT LIVER S-9, PHENOBARBITAL AND BETA-NAPHTHOFLAVONE, Method: PREINCUBATION",inactive; negative
same,mutagenic call,"Test System: AMES SALMONELLA TYPHIMURIUM, Strain/Indicator: TA98, Metabolic Activation: RAT, LIVER, S-9, AROCLOR 1254, Method: STANDARD PLATE",inactive; negative
same,mutagenic call,[5],inactive; negative
same,mutagenic call,"Test System: AMES SALMONELLA TYPHIMURIUM, Strain/Indicator: TA100, Metabolic Activation: NONE, Method: STANDARD PLATE",inactive; negative
same,mutagenic call,"Test System: AMES SALMONELLA TYPHIMURIUM, Strain/Indicator: TA100, Metabolic Activation: RAT LIVER S-9, PHENOBARBITAL AND BETA-NAPHTHOFLAVONE, Method: PREINCUBATION",inactive; negative
same,mutagenic call,[11],inactive; negative
same,mutagenic call,[8],inactive; negative
same,mutagenic call,"Test System: AMES SALMONELLA TYPHIMURIUM, Strain/Indicator: TA1535, Metabolic Activation: NONE, Method: STANDARD PLATE",inactive; negative
same,mutagenic call,"Test System: AMES SALMONELLA TYPHIMURIUM, Strain/Indicator: TA1535, Metabolic Activation: RAT LIVER S-9, PHENOBARBITAL AND BETA-NAPHTHOFLAVONE, Method: PREINCUBATION",inactive; negative
same,mutagenic call,"Test System: AMES SALMONELLA TYPHIMURIUM, Strain/Indicator: TA1535, Metabolic Activation: RAT, LIVER, S-9, AROCLOR 1254, Method: STANDARD PLATE",inactive; negative
same,mutagenic call,[10],inactive; negative
same,mutagenic call,"Test System: AMES SALMONELLA TYPHIMURIUM, Strain/Indicator: TA1537, Metabolic Activation: NONE, Method: STANDARD PLATE",inactive; negative
same,mutagenic call,"Test System: AMES SALMONELLA TYPHIMURIUM, Strain/Indicator: TA1537, Metabolic Activation: RAT LIVER S-9, PHENOBARBITAL AND BETA-NAPHTHOFLAVONE, Method: PREINCUBATION",inactive; negative
same,mutagenic call,"Test System: AMES SALMONELLA TYPHIMURIUM, Strain/Indicator: TA1537, Metabolic Activation: RAT, LIVER, S-9, AROCLOR 1254, Method: STANDARD PLATE",inactive; negative
same,mutagenic call,"Test System: E. COLI, Strain/Indicator: WP2, Metabolic Activation: NONE, Method: STANDARD PLATE",inactive; negative
same,mutagenic call,"Test System: E. COLI, Strain/Indicator: WP2, Metabolic Activation: RAT, LIVER, S-9, AROCLOR 1254, Method: STANDARD PLATE",inactive; negative
same,mutagenic call,"Test System: E.COLI, Strain/Indicator: WP2UVRA, Metabolic Activation: NONE, Method: PREINCUBATION",inactive; negative
same,mutagenic call,"Test System: E.COLI, Strain/Indicator: WP2UVRA, Metabolic Activation: RAT LIVER S-9, PHENOBARBITAL AND BETA-NAPHTHOFLAVONE, Method: PREINCUBATION",inactive; negative
same,mutagenic call,"Test System: MOUSE LYMPHOMA, Strain/Indicator: L5178Y (TK+/TK-), Metabolic Activation: NONE, Method: SUSPENSION/PLATE",active; positive
same,mutagenic call,"Test System: MOUSE LYMPHOMA, Strain/Indicator: L5178Y (TK+/TK-), Metabolic Activation: RAT, LIVER, S-9, AROCLOR 1254, Method: SUSPENSION/PLATE",active; positive
CC(=O)Nc1cccc2cccnc12,mutagenic call,[2],inactive; negative
same,mutagenic call,[12],inactive; negative
same,mutagenic call,[5],inactive; negative
same,mutagenic call,[13],active; positive
same,mutagenic call,"Test System: AMES SALMONELLA TYPHIMURIUM, Strain/Indicator: TA100, Metabolic Activation: RAT, LIVER, S-9, PHENOBARBITAL AND 5,6-BENZOFLAVONE, Method: PREINCUBATION",active; positive
same,mutagenic call,"Test System: AMES SALMONELLA TYPHIMURIUM, Strain/Indicator: TA100, Metabolic Activation: S-9, Method: PREINCUBATION",active; positive
O=C(O)c1cc([N+](=O)[O-])ccc1[N+](=O)[O-],mutagenic call,[2],active; positive
same,mutagenic call,[12],active; positive
same,mutagenic call,[13],inactive; negative
Cc1nc2c(cc(C)c3ccc4ccc(O)cc4c32)[nH]1,mutagenic call,"Test System: AMES SALMONELLA TYPHIMURIUM, Strain/Indicator: TA98, Metabolic Activation: RAT, LIVER, S-9, AROCLOR, Method: STANDARD PLATE",active; positive
CC1c2ccccc2-c2ccccc21,mutagenic call,[11],active; positive
CCCCCCCCCCCC[N+](C)(C)COCCCCCCCCC,mutagenic call,"Test System: BACILLUS SUBTILIS, Strain/Indicator: H17/REC, Metabolic Activation: NONE, Method: STANDARD PLATE",inactive; negative
same,mutagenic call,"Test System: BACILLUS SUBTILIS, Strain/Indicator: M45, Metabolic Activation: NONE, Method: STANDARD PLATE",inactive; negative
Cc1ccc2c(ccc3cc4ccccc4cc32)c1,mutagenic call,"Test System: AMES SALMONELLA TYPHIMURIUM, Strain/Indicator: TA100, Metabolic Activation: RAT, INTACT HEPATOCYTES, AROCLOR 1254, Method: PREINCUBATION",inactive; negative
same,mutagenic call,"Test System: AMES SALMONELLA TYPHIMURIUM, Strain/Indicator: TA100, Metabolic Activation: RAT, NADPH-FORTIFIED HOMOGENIZED HEPATOCYTES, AROCLOR 1254, Method: PREINCUBATION",active; positive
same,mutagenic call,"Test System: AMES SALMONELLA TYPHIMURIUM, Strain/Indicator: TA100, Metabolic Activation: RAT, SONICATED HEPATOCYTES, AROCLOR 1254, Method: PREINCUBATION",active; positive
Brc1cc(Br)c(-c2cc(Br)c(Br)cc2Br)cc1Br,mutagenic call,"Test System: CHINESE HAMSTER V-79, Strain/Indicator: V-79 (HGPRT)/6-THIOGUANINE, Metabolic Activation: NONE",inactive; negative
